Patent US5641805A, “Topical ophthalmic formulations for treating allergic eye diseases” (Alcon Laboratories, Inc., priority 1995, dated 1997)

Experiments:
[1] = tested on: Human Conjunctival Tissue Mast Cells; assay: Compound effect on histamine release from human conjunctival tissue mast cells upon anti-human IgE challenge; type: cell-based; settings: for inhibition of human conjunctival mast cell degranulation: statement on Table 1; for inhibition at 500 µM: * p < 0.05 Dunnett's, isomers not significantly different (p > 0.05 Studentized Range), read-out: Inhibition (%) of in-vitro histamine release, isomer comparison
Method: The inhibitory effects of reported anti-allergic, mast cell stabilizing drugs on mast cells obtained from human conjunctiva (the target cells for topical ophthalmic drug preparations claimed useful in treating allergic conjunctivitis) were tested according to the following experimental method. Human conjunctival tissues obtained from organ/tissue donors were weighed and transferred to petri dishes containing RPMI 1640 culture medium supplemented with heat inactivated fetal bovine serum (20%, v/v), L-glutamine (2 mM), penicillin (100 units/ml), streptomycin (100 μg/ml), amphotericin B (2.5 μg/ml) and HEPES (10 mM) and equilibrated overnight at 37° C. (5% CO2).
Post equilibration, tissues were placed in Tyrode's buffer (in mM: 137 NaCl, 2.7 KCl, 0.35 Na H2 PO4, 1.8 CaCl2, 0.98 MgCl2, 11.9 Na HCO3, 5.5 glucose) containing 0.1% gelatin (TGCM) and incubated with 200 U each of collagenase (Type IV) and hyaluronidase (Type I-S) per gram of tissue for 30 minutes at 37° C. Following enzyme digestion, tissues were washed with an equal volume of TGCM over Nitex® filter cloth (Tetko, Briarcliff Manor, N.Y.). Intact tissues were placed in TGCM for further enzymatic digestions.
The flitrate obtained from each digestion was centrifuged (825 g, 7 minutes) and pelleted cells were resuspended in calcium/magnesium free Tyrode's buffer (TG). Pooled cells from all digestions were centrifuged (825 g, 30 minutes) over a […] Percoll® cushion. Mast cell enriched cell pellets were resuspended and washed in TG buffer. Viability and number of mast cells were determined by vital dye exclusion and toluidine blue 0 staining of the harvested cell suspensions. Mast cell containing preparations were placed in supplemented RPMI 1640 culture medium and allowed to equilibrate at 37° C. prior to challenge with anti-human IgE (goat derived IgG antibody).
Cell suspensions containing 5000 mast cells were added to TGCM containing tubes and challenged with anti-human IgE. The final volume of each reaction tube was 1.0 mL. Tubes were incubated at 37° C. for 15 minutes post challenge. The release reaction was terminated by centrifugation (500 g, 7 minutes). Supernatants were collected and stored (-20° C.) until mediator analyses.
Initially, supernatants were analyzed for histamine content by both the automated fluorimetric method described by Siraganian, "An Automated Continuous Flow System for the Extraction and Fluorometric Analysis of Histamine," Anal. Biochem., Vol. 57, 383-94 (1974), and a commercially available radioimmunoassay (RIA) system (AMAC, Inc., Westbrook, Me.). Results from these assays were positively correlated (r=0.999): therefore, the remainder of histamine analyses were performed by RIA.
Each experiment included an anti-human IgE (plus vehicle) positive release control, a spontaneous/vehicle release and a total histamine release control. Total histamine release was determined by treatment with Triton X-100® (0.1%). The experiments also included a non-specific goat IgG control. Test compounds are administered to the mast cell cultures either 1 or 15 minutes before stimulation with anti-human IgE. Inhibition of histamine release resulting from challenge of drug treated mast cells was determined by direct comparison with histamine release from vehicle treated, anti-IgE challenged mast cells using Dunnett's t-test (Dunnett, "A multiple comparison procedure for comparing treatments with a control, " J. Amer. Stat Assoc., Vol. 50, 1096-1121 (1955)).
Dunnett's t-test, is a statistical test which compares multiple treatment groups with one control group. In the assay described above, histamine released from drug treated mast cells are compared to histamine released from the anti-human IgE plus vehicle treated mast cells which serve as the positive control. Statistically significant inhibition is determined using this procedure. The probability level of 0.05 is accepted as the level of significance in biomedical research. […]

rodent mast cell = settings: cited from earlier work
[2] = tested on: mast cells obtained from bronchoalveolar lavage fluid; settings: 100 μM; cited from earlier work
human skin mast cells = settings: cited from earlier work
rat conjunctiva = settings: 0.1 % strength
Source text: This assay indicates whether a topically applied compound effectively prevents or decreases the local allergic response in the conjunctiva. This assay allows an assessment of bioavailability following topical dosing. Briefly, male Sprague Dawley rats (6/group) were passively sensitized by subconjunctival injection of a rat serum containing IgE specific for ovalbumin (OA). Twenty-four hours post sensitization, test compound prepared in saline (0.9% NaCl) or saline vehicle was applied topically onto the sensitized eye. Twenty (20) minutes after dosing, rats were challenged intravenously via the lateral tail vein with 1.0 ml of a solution containing OA (1.0 mg/ml) and Evans Blue dye (2.5 mg/ml). Thirty (30) minutes post antigen challenge, animals were killed, skin was reflected, and the size of the resulting wheal and the intensity of the extravasated dye were determined.

[3] = Homo sapiens, Mast cell, 0.25 h, treatment 15 min
[4] = Homo sapiens, Mast cell, 0.25 h, treatment 15 min, * p < 0.05 Dunnett's t-test
[5] = Homo sapiens, Mast cell, 1 min, treatment 1 min

CN(C)CC/C=C1/c2ccccc2COc2ccc(CC(=O)O)cc21 [Compound A, 11-(3-dimethylaminopropylidene)-6,11-dihydrodibenz[b,e]oxepin-2-acetic acid]
inhibition at 30 µM [1, 3]: -3.9%
inhibition at 100 µM [1, 4]: 13%
inhibition at 300 µM [1, 4]: 29.6%
inhibition at 600 µM ([1]; Homo sapiens, Mast cell, 0.25 h, 600 μM, treatment 15 min, * p < 0.05 Dunnett's t-test): 47.5%
inhibition at 1000 µM [1, 4]: 66.7%
inhibition at 2000 µM ([1]; Mast cell, 2000 μM, treatment 15 min before anti-human IgE, * p < 0.05 Dunnett's t-test): 92.6%

O=C(O)c1cc(=O)c2c(OCC(O)COc3cccc4oc(C(=O)O)cc(=O)c34)cccc2o1 [Cromolyn sodium]
inhibition of rodent mast cell degranulation (rodent mast cell): inhibit rodent mast cell degranulation
inhibition at 10 µM [1, 5]: -0.9%
inhibition at 30 µM [1, 5]: 0.1%
inhibition at 100 µM [1, 5]: 1.2%
inhibition at 300 µM [1, 5]: -1.8%
inhibition at 1000 µM [1, 5]: -9.4%
inhibition at 10 µM [1, 3]: 10.6%
inhibition at 30 µM [1, 3]: 1.8%
inhibition at 100 µM [1, 4]: -1.2%
inhibition at 300 µM [1, 4]: -6.9%
inhibition at 1000 µM [1, 4]: -15.4%
inhibition of human conjunctival mast cell degranulation [1]: failed to significantly inhibit human conjunctival mast cell degranulation
inhibition of mast cells from bronchoalveolar lavage fluid [2]: inhibited
inhibition of histamine release from human skin mast cells (human skin mast cells): not inhibited at all

CCCc1c2oc(C(=O)O)cc(=O)c2cc2c(=O)cc(C(=O)O)n(CC)c12 [Nedocromil sodium]
inhibition at 0.1 µM [1, 5]: 17.4%
inhibition at 0.3 µM [1, 5]: 8.8%
inhibition at 1 µM [1, 5]: 4.8%
inhibition at 3 µM [1, 5]: 0.8%
inhibition at 10 µM [1, 5]: -6.5%
inhibition at 30 µM [1, 5]: -0.9%
inhibition at 100 µM [1, 5]: 6.7%
inhibition at 300 µM [1, 5]: 4%
inhibition at 1000 µM [1, 5]: -1.1%
inhibition at 0.1 µM [1, 3]: 8.7%
inhibition at 0.3 µM [1, 3]: 3.7%
inhibition at 1 µM [1, 3]: 10.7%
inhibition at 3 µM [1, 3]: 13.2%
inhibition at 10 µM [1, 3]: 9.2%
inhibition at 30 µM [1, 3]: 15.2%
inhibition at 100 µM [1, 4]: 28.2%
inhibition at 300 µM [1, 4]: 11.3%
inhibition at 1000 µM [1, 4]: 7.2%
inhibition of human conjunctival mast cell degranulation [1]: failed to significantly inhibit human conjunctival mast cell degranulation

CN(C)CC/C=C1/c2ccccc2COc2ccc(CC(=O)O)cc21 [Compound A (cis), Z-11-(3-dimethylaminopropylidene)-6,11-dihydrodibenz[b,e]oxepin-2-acetic acid]
inhibition at 500 µM [1, 3]: 29.7%
inhibition of human conjunctival mast cell degranulation [1]: concentration-dependent inhibition of mast cell degranulation

CN(C)CC/C=C1\c2ccccc2COc2ccc(CC(=O)O)cc21 [Compound A (trans), E-11-(3-dimethylaminopropylidene)-6,11-dihydrodibenz[b,e]oxepin-2-acetic acid]
inhibition at 500 µM [1, 3]: 26.2%

CN(C)CC/C=C1/c2ccccc2COc2ccc(C(=O)O)cc21 [Compound B, (Z)11-(3-Dimethylaminopropylidene)-6,11-dihydrodibenz[b,e]oxepin2-carboxylic acid]
% Change (permeability score) (rat conjunctiva): -55%

CN(C)CCC=C1c2ccccc2COc2ccc(/C=C\C(=O)O)cc21 [Compound C, (Z)11-(3-Dimethylaminopropylidene)-6,11-dihydrodibenz[b,e]oxepin2-acrylic acid]
% Change (permeability score) (rat conjunctiva): -53%
